Results from patent publication US20130035344A1, “PHARMACEUTICAL COMPOSITION FOR ORAL ADMINISTRATION” (KOWA Co., Ltd., priority 2009, published 2013).

Tests used:
Format in all cases: physicochemical
[1] = Dissolution test, JP second method (paddle method), second fluid for dissolution test
Description: The dissolubility of the samples 1 to 6 was examined according to the second method (paddle method) of the dissolution test method according to the general test methods of the Japanese Pharmacopoeia.
103.65 mg of each of the samples 1 to 6 (53.65 mg for sample 2 only) was introduced into 900 mL of the second fluid for dissolution test according to the Japanese Pharmacopoeia, and the test was carried out under the conditions of a temperature of 37±0.5° C. and a speed of paddle rotation of 50 rpm. Thus, the concentrations of the compound a after 5, 10, 15, 30, 45 and 60 minutes were measured. The sample solution collected at each time point was filtered through a membrane filter made of PTFE (DISMIC-25HP manufactured by Toyo Roshi Kaisha, Ltd.) having a pore size of 0.45 μm, and was analyzed by a high performance liquid chromatographic method using a reversed phase column (manufactured by Nomura Chemical Co., Ltd.; Develosil ODS-HG-5). Thus, the dissolution rates were calculated.
The dissolubility of the samples 7 to 15 was examined by carrying out the test in the same manner as that described in Test Example 1, except that 153.65 mg of sample 7, 98.65 mg of sample 8, 93.65 mg of sample 9, 88.65 mg of sample 10, 78.65 mg of sample 11, 68.65 mg of sample 12, 63.65 mg of sample 13, 58.65 mg of sample 14, and 55.65 mg of sample 15 were respectively introduced into 900 mL of the second fluid for dissolution test according to the Japanese Pharmacopoeia.
The dissolubility of the tablets of Examples 8 to 10 and Comparative Examples 9 and 10 was examined by carrying out the test by the same method as that described in Test Example 1, except that one tablet each of the Examples and Comparative Examples were introduced into 900 mL of the second fluid for dissolution test according to the Japanese Pharmacopoeia.
The dissolubility of the tablets of Example 11 and Comparative Example 11 was examined by carrying out the test in the same manner as that described in Test Example 1, except that each of tablets of Example 11 and Comparative Example 11 was introduced into 900 mL of the second fluid for dissolution test according to the Japanese Pharmacopoeia.

[2] = Solubility of compound a in water
Text: However, compound a has low solubility in weakly acidic environments to alkaline environments (for example, the solubility in water is 0.05% (W/V)). Therefore, in the case of patients of achlorhydria, which is considered to develop more frequently in elderly people, there has been a concern that the dissolubility of the compound a from the pharmaceutical composition in the stomach may be insufficient, and there may be variations in the efficacy of the drug.

[3] = Measurement of pH value of sample or tablet in purified water
Description: 103.65 mg of each of the samples 1 to 6 (53.65 mg for sample 2 only) was introduced into a beaker, and 50 mL of purified water was added thereto. While the mixture was stirred with a magnetic stirrer, the pH of the solution was measured with a glass electrode type hydrogen ion concentration meter (manufactured by Toa Electronics, Inc.; HM-50V). 50 mL of purified water was further added thereto, and then the measurement of pH was carried out in the same manner.
The pH values of the samples 7 to 15 were measured in the same manner as that used in Test Example 2. Meanwhile 153.65 mg of sample 7, 98.65 mg of sample 8, 93.65 mg of sample 9, 88.65 mg of sample 10, 78.65 mg of sample 11, 68.65 mg of sample 12, 63.65 mg of sample 13, 58.65 mg of sample 14, and 55.65 mg of sample 15 were used.
The pH values of the tablets of Examples 8 to 10 and Comparative Examples 9 and 10 were measured by the same method as that used in Test Example 2. Meanwhile, one tablet was used for each measurement.
The pH values of the tablets of Example 11 and Comparative Example 11 were measured in the same manner as that used in Test Example 2. Meanwhile, one tablet was used for each measurement.

| dissolubility of compound a (in words) ([1]; JP second fluid, paddle method) | solubility in water [2] | dissolution rate of compound a, Time (min) 0 ([1]; 0 min, 900 mL JP second fluid, 37±0.5° C., paddle 50 rpm) | dissolution rate of compound a, Time (min) 5 ([1]; 5 min, 900 mL JP second fluid, 37±0.5° C., paddle 50 rpm) | dissolution rate of compound a, Time (min) 10 ([1]; 10 min, 900 mL JP second fluid, 37±0.5° C., paddle 50 rpm) | dissolution rate of compound a, Time (min) 15 ([1]; 15 min, 900 mL JP second fluid, 37±0.5° C., paddle 50 rpm) | dissolution rate of compound a, Time (min) 30 ([1]; 30 min, 900 mL JP second fluid, 37±0.5° C., paddle 50 rpm) | dissolution rate of compound a, Time (min) 45 ([1]; 45 min, 900 mL JP second fluid, 37±0.5° C., paddle 50 rpm) | dissolution rate of compound a, Time (min) 60 ([1]; 60 min, 900 mL JP second fluid, 37±0.5° C., paddle 50 rpm) | pH (100 mL) ([3]; after a further 50 mL purified water (100 mL)) | pH (50 mL) ([3]; sample or one tablet in 50 mL purified water, stirred) | SMILES |
| --- | --- | --- | --- | --- | --- | --- | --- | --- | --- | --- | --- |
| hardly dissolved | 0.05 % (W/V) |  |  |  |  |  |  |  |  |  | CSc1cc(C)nc(SC)c1NC(=O)CN1CCN(CCSc2nc3ccccc3[nH]2)CC1 [compound a, 2-[4-[2-(Benzimidazol-2-ylthio)ethyl]piperazin-1-yl]-N-[2,4-bis(methylthio)-6-methyl-3-pyridyl]acetamide] |
|  |  | 0% | 0% | 5.7% | 3.1% | 5.2% | 7.1% | 10.2% | 5.07 | 5.02 | CSc1cc(C)nc(SC)c1NC(=O)CN1CCN(CCSc2nc3ccccc3[nH]2)CC1 [Comparative Example 1, 2-[4-[2-(Benzimidazol-2-ylthio)ethyl]piperazin-1-yl]-N-[2,4-bis(methylthio)-6-methyl-3-pyridyl]acetamide] |
